Legend:
[1] = xn = mol fraction of the nth substance listed; details: for viscosity / mass density: 101 kPa, Liquid; for viscosity: Capillary tube (Ostwald / Ubbelohde) method; for mass density: Vibrating tube method
[2] = refractive index (Na D-line) (dimensionless); xn = mol fraction of the nth substance listed; details: 101 kPa, Liquid

C1C[C@@H]2[C@H]3CC[C@H](C3)[C@@H]2C1 [exo-tetrahydrodicyclopentadiene] + CCCCCCCCCCCC
Details | mass density, [1] [kg/m3] | refractive index, [2] | surface tension liquid-gas, [1] [mN/m] | viscosity, [1] [mPa·s]
293.15 K, x2 = 0 | 935.3 | 1.4877 | 31.86 | 3.077
293.15 K, x2 = 0.0803 | 913 | 1.4796 | 30.13 | 2.796
293.15 K, x2 = 0.1712 | 889.9 | 1.4711 | 29.15 | 2.54
293.15 K, x2 = 0.2563 | 870 | 1.462 | 28.63 | 2.34
293.15 K, x2 = 0.3428 | 851.4 | 1.4573 | 27.95 | 2.169
293.15 K, x2 = 0.4443 | 831.4 | 1.4502 | 27.32 | 2.006
293.15 K, x2 = 0.5407 | 814.1 | 1.4448 | 26.32 | 1.881
293.15 K, x2 = 0.6527 | 795.7 | 1.4383 | 25.94 | 1.764
293.15 K, x2 = 0.7596 | 779.8 | 1.4325 | 25.67 | 1.672
293.15 K, x2 = 0.8855 | 762.7 | 1.4271 | 24.51 | 1.574
298.15 K, x2 = 0 | 931.4 | – | – | 2.784
298.15 K, x2 = 0.0803 | 909.1 | – | – | 2.535
298.15 K, x2 = 0.1712 | 886.1 | – | – | 2.307
298.15 K, x2 = 0.2563 | 866.2 | – | – | 2.127
298.15 K, x2 = 0.3428 | 847.7 | – | – | 1.974
298.15 K, x2 = 0.4443 | 827.7 | – | – | 1.827
298.15 K, x2 = 0.5407 | 810.4 | – | – | 1.715
298.15 K, x2 = 0.6527 | 792 | – | – | 1.61
298.15 K, x2 = 0.7596 | 776.1 | – | – | 1.526
298.15 K, x2 = 0.8855 | 759.1 | – | – | 1.438
303.15 K, x2 = 0 | 927.5 | 1.4832 | 31.09 | 2.525
303.15 K, x2 = 0.0803 | 905.2 | 1.4733 | 29.37 | 2.308
303.15 K, x2 = 0.1712 | 882.2 | 1.4657 | 28.51 | 2.104
303.15 K, x2 = 0.2563 | 862.4 | 1.4571 | 27.82 | 1.944
303.15 K, x2 = 0.3428 | 843.9 | 1.4524 | 26.77 | 1.807
303.15 K, x2 = 0.4443 | 824 | 1.4455 | 26.51 | 1.674
303.15 K, x2 = 0.5407 | 806.6 | 1.4396 | 25.84 | 1.572
303.15 K, x2 = 0.6527 | 788.3 | 1.4333 | 25.68 | 1.476
303.15 K, x2 = 0.7596 | 772.5 | 1.4279 | 24.58 | 1.4
303.15 K, x2 = 0.8855 | 755.5 | 1.4214 | 23.82 | 1.321
313.15 K, x2 = 0 | 919.6 | – | – | 2.112
313.15 K, x2 = 0.0803 | 897.4 | – | – | 1.939
313.15 K, x2 = 0.1712 | 874.5 | – | – | 1.775
313.15 K, x2 = 0.2563 | 854.7 | – | – | 1.644
313.15 K, x2 = 0.3428 | 836.2 | – | – | 1.532
313.15 K, x2 = 0.4443 | 816.4 | – | – | 1.422
313.15 K, x2 = 0.5407 | 799.2 | – | – | 1.337
313.15 K, x2 = 0.6527 | 780.9 | – | – | 1.257
313.15 K, x2 = 0.7596 | 765.1 | – | – | 1.193
313.15 K, x2 = 0.8855 | 748.1 | – | – | 1.128

C1C[C@@H]2[C@H]3CC[C@H](C3)[C@@H]2C1 [exo-tetrahydrodicyclopentadiene] + CCCCCCCCCCCCC
Details | mass density, [1] [kg/m3] | refractive index, [2] | surface tension liquid-gas, [1] [mN/m] | viscosity, [1] [mPa·s]
293.15 K, x2 = 0 | 935.3 | 1.4877 | 31.86 | 3.077
293.15 K, x2 = 0.0757 | 913.9 | 1.4795 | 30.4 | 2.88
293.15 K, x2 = 0.1546 | 893.5 | 1.4726 | 29.63 | 2.703
293.15 K, x2 = 0.2392 | 873.7 | 1.4662 | 28.55 | 2.552
293.15 K, x2 = 0.3284 | 854.6 | 1.4586 | 28.03 | 2.419
293.15 K, x2 = 0.4236 | 836.3 | 1.4528 | 27.19 | 2.302
293.15 K, x2 = 0.5258 | 818.7 | 1.4468 | 26.68 | 2.198
293.15 K, x2 = 0.632 | 802.3 | 1.4407 | 25.95 | 2.108
293.15 K, x2 = 0.7477 | 786.3 | 1.4349 | 25.54 | 2.028
293.15 K, x2 = 0.8665 | 771.5 | 1.4306 | 25.19 | 1.963
298.15 K, x2 = 0 | 931.4 | – | – | 2.784
298.15 K, x2 = 0.0757 | 910 | – | – | 2.609
298.15 K, x2 = 0.1546 | 889.7 | – | – | 2.448
298.15 K, x2 = 0.2392 | 869.9 | – | – | 2.311
298.15 K, x2 = 0.3284 | 850.9 | – | – | 2.189
298.15 K, x2 = 0.4236 | 832.6 | – | – | 2.082
298.15 K, x2 = 0.5258 | 815 | – | – | 1.992
298.15 K, x2 = 0.632 | 798.7 | – | – | 1.913
298.15 K, x2 = 0.7477 | 782.7 | – | – | 1.842
298.15 K, x2 = 0.8665 | 767.9 | – | – | 1.789
303.15 K, x2 = 0 | 927.5 | 1.4832 | 31.09 | 2.525
303.15 K, x2 = 0.0757 | 906.1 | 1.4743 | 29.94 | 2.37
303.15 K, x2 = 0.1546 | 885.9 | 1.4683 | 28.98 | 2.233
303.15 K, x2 = 0.2392 | 866.1 | 1.4614 | 28.38 | 2.112
303.15 K, x2 = 0.3284 | 847.1 | 1.4541 | 27.21 | 2
303.15 K, x2 = 0.4236 | 828.9 | 1.4483 | 26.74 | 1.904
303.15 K, x2 = 0.5258 | 811.3 | 1.442 | 25.72 | 1.822
303.15 K, x2 = 0.632 | 795 | 1.4357 | 25.38 | 1.748
303.15 K, x2 = 0.7477 | 779 | 1.4305 | 24.83 | 1.689
303.15 K, x2 = 0.8665 | 764.3 | 1.4258 | 24.5 | 1.631
313.15 K, x2 = 0 | 919.6 | – | – | 2.112
313.15 K, x2 = 0.0757 | 898.4 | – | – | 1.975
313.15 K, x2 = 0.1546 | 878.2 | – | – | 1.86
313.15 K, x2 = 0.2392 | 858.4 | – | – | 1.759
313.15 K, x2 = 0.3284 | 839.5 | – | – | 1.669
313.15 K, x2 = 0.4236 | 821.4 | – | – | 1.587
313.15 K, x2 = 0.5258 | 803.9 | – | – | 1.521
313.15 K, x2 = 0.632 | 787.7 | – | – | 1.466
313.15 K, x2 = 0.7477 | 771.8 | – | – | 1.416
313.15 K, x2 = 0.8665 | 757 | – | – | 1.369

— the NIST ThermoML archive (doi:10.1021/je200757a)
